Data on 15 molecules can be found in patent US8501744B2, “Piperazine compounds” (Amura Therapeutics, Limited, priority 2008, dated 2013).

This test concerns the target Human recombinant cathepsin K (Homo sapiens (Human), UniProt P43235). In words: In vitro cathepsin Ki inhibition measurements. The format is biochemical. Conditions: for Ki: human recombinant cathepsin K, pH 5.5, Z-Leu-Arg-AMC substrate, read-out: In vitro Ki (nM) vs Cath K; for fold improvement in in vitro potency against human cathepsin K: relative to closest prior art compound (42). As to the method:
Stock solutions of substrate or inhibitor were made up to 10 mM in 100% dimethylsulfoxide (DMSO) (Rathburns, Glasgow, U.K.) and diluted as appropriately required. In all cases the DMSO concentration in the assays was maintained at less than 1% (vol./vol.). The equilibrium inhibition constants (Ki^ss) for each compound were measured under steady-state conditions monitoring enzyme activity as a function of inhibitor concentration. The values were calculated on the assumption of pure competitive behaviour (Cornish-Bowden, A. Fundamentals of enzyme kinetics Portland Press; 1995, 93-128.). Human recombinant cathepsin K (0.25 nM final; B. Turk, Josef, Stefan Institute, Ljubljana, Slovenia), was routinely assayed in 100 mM sodium acetate; pH 5.5 containing 1 mM EDTA, 10 mM L-cysteine and 1.8 μM Z-Leu-Arg-AMC ([S]=KM).
The apparent inhibition constant (Ki) for each compound was determined on the basis that inhibition was reversible and occurred by a pure-competitive mechanism. The Ki values were calculated, from the dependence of enzyme activity as a function of inhibitor concentration, by direct regression analysis (Prism v 3.02) using Equation 2 (Cornish-Bowden, A., 1995.).
In situations where the apparent dissociation constant (Ki^app) approached the enzyme concentrations, the Ki^app values were calculated using a quadratic solution in the form described by Equation 3 (Morrison, J. F. Trends Biochem. Sci., 7, 102-105, 1982; Morrison, J. F. Biochim. Biophys. Acta. 185, 269-286, 1969; Stone, S. R. and Hofsteenge, J. Biochemistry, 25, 4622-4628, 1986).
Curves were fitted by non-linear regression analysis (Prism) using a fixed value for the enzyme concentration. Equation 4 was used to account for the substrate kinetics, where ‘Ki’ is the inhibition constant, ‘[So]’ is the initial substrate concentration and ‘KM^app’ is the apparent macroscopic binding (Michaelis) constant for the substrate (Morrison, 1982).

Each structure is given as a SMILES string.

Human recombinant cathepsin K, sequence (P43235 115-329): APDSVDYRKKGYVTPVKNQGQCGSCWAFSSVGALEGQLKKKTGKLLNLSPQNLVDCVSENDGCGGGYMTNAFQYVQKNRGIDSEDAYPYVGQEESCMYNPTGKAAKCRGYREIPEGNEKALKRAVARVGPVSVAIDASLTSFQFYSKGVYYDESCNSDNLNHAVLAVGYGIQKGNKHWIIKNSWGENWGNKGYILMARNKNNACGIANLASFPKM

`CC(C)C[C@H](NC(=O)c1ccc(N2CCN(C)CC2)cc1)C(=O)N1C[C@H](C(F)F)[C@H]2OCC(=O)[C@H]21` [Example 12, N—((S)-1-((3aS,6S,6aR)-6-(difluoromethyl)-3-oxodihydro-2H-furo[3,2-b]pyrrol-4(5H,6H,6aH)-yl)-4-methyl-1-oxopentan-2-yl)-4-(4-methylpiperazin-1-yl)benzamide]: the inhibition constant (Ki) is 0.8 nM and the “fold improvement in in vitro potency against human cathepsin K” value (from here on “fold improvement in in vitro potency”) was determined as 10.9 fold.

As for `CC[C@H]1CN(C(=O)[C@@H](NC(=O)c2ccc(N3CCN(C)CC3)cc2)C2CCCC2)[C@@H]2C(=O)CO[C@H]12` [Example 29, N—((S)-1-cyclopentyl-2-((3aS,6S,6aR)-6-ethyl-3-oxodihydro-2H-furo[3,2-b]pyrrol-4(5H,6H,6aH)-yl)-2-oxoethyl)-4-(4-methylpiperazin-1-yl)benzamide], the Ki came out at 0.4 nM and the “fold improvement in in vitro potency” value was determined as 22.9 fold. For the molecule `CC(C)[C@H]1CN(C(=O)[C@@H](NC(=O)c2ccc(N3CCN(C)CC3)cc2)C(C)(C)C)[C@@H]2C(=O)CO[C@H]12` [Example 26, N—((S)-1-((3aS,6S,6aR)-6-isopropyl-3-oxodihydro-2H-furo[3,2-b]pyrrol-4 (5H,6H,6aH)-yl)-3,3-dimethyl-1-oxobutan-2-yl)-4-(4-methylpiperazin-1-yl)benzamide], the Ki was 0.8 nM.

For `CC(C)C[C@H](NC(=O)c1ccc(-c2csc(N3CCN(C)CC3)n2)cc1)C(=O)N1C[C@@H](C)[C@H]2OCC(=O)[C@H]21` [Example 16, N—((S)-4-methyl-1-((3aS,6R,6aR)-6-methyl-3-oxodihydro-2H-furo[3,2-b]pyrrol-4(5H,6H,6aH)-yl)-1-oxopentan-2-yl)-4-(2-(4-methylpiperazin-1-yl)thiazol-4-yl)benzamide], the Ki came out at 0.7 nM. On the same count and under the same terms, then `CC[C@H]1CN(C(=O)[C@@H](NC(=O)c2ccc(N3CCN(C)CC3)cc2)C(C)(C)C)[C@@H]2C(=O)CO[C@H]12` [Example 25, N—((S)-1-((3aS,6S,6aR)-6-ethyl-3-oxodihydro-2H-furo[3,2-b]pyrrol-4(5H,6H,6aH)-yl)-3,3-dimethyl-1-oxobutan-2-yl)-4-(4-methylpiperazin-1-yl)benzamide], with 0.8 nM. For `C[C@H]1CN(C(=O)[C@@H](NC(=O)c2ccc(N3CCN(C)CC3)cc2)C2CCCC2)[C@@H]2C(=O)CO[C@@H]21` [Example 7, N—((S)-1-cyclopentyl-2-((3aS,6S,6aR)-6-methyl-3-oxodihydro-2H-furo [3,2-b]pyrrol-4(5H,6H,6aH)-yl)-2-oxoethyl)-4-(4-methylpiperazin-1-yl)benzamide], the inhibition constant Ki amounted to 0.35 nM and the “fold improvement in in vitro potency” value is recorded as 24.9 fold.

As for `CC[C@@H]1CN(C(=O)[C@@H](NC(=O)c2ccc(N3CCN(C)CC3)cc2)C2CCCC2)[C@@H]2C(=O)CO[C@H]12` [Example 27, N—((S)-1-cyclopentyl-2-((3aS,6R,6aR)-6-ethyl-3-oxodihydro-2H-furo[3,2-b]pyrrol-4(5H,6H,6aH)-yl)-2-oxoethyl)-4-(4-methylpiperazin-1-yl)benzamide], the Ki is 1.2 nM and the “fold improvement in in vitro potency” value came out at 7.3 fold. For the molecule `C[C@@H]1CN(C(=O)[C@@H](NC(=O)c2ccc(N3CCN(C)CC3)cc2)C2CCCC2)[C@@H]2C(=O)CO[C@H]12` [Example 4, N—((S)-1-cyclopentyl-2-((3aS,6R,6aR)-6-methyl-3-oxodihydro-2H-furo[3,2-b]pyrrol-4(5H,6H,6aH)-yl)-2-oxoethyl)-4-(4-methylpiperazin-1-yl)benzamide], the inhibitory constant (Ki) was 1 nM and the “fold improvement in in vitro potency” value is recorded as 8.7 fold. On to `CC(C)[C@@H]1CN(C(=O)[C@@H](NC(=O)c2ccc(N3CCN(C)CC3)cc2)C(C)(C)C)[C@@H]2C(=O)CO[C@@H]21` [Example 24, N—((S)-1-((3aS,6R,6aH)-6-isopropyl-3-oxodihydro-2H-furo[3,2-b]pyrrol-4(5H,6H,6aH)-yl)-3,3-dimethyl-1-oxobutan-2-yl)-4-(4-methylpiperazin-1-yl)benzamide], for which the inhibition constant (Ki) stood at 3.2 nM. As for `CC(C)C[C@H](NC(=O)c1ccc(N2CCN(C)CC2)cc1)C(=O)N1C[C@@H](C(F)F)[C@H]2OCC(=O)[C@H]21` [Example 8, N—((S)-1-((3aS,6R,6aR)-6-(difluoromethyl)-3-oxodihydro-2H-furo[3,2-b]pyrrol-4(5H,6H,6aH)-yl)-4-methyl-1-oxopentan-2-yl)-4-(4-methylpiperazin-1-yl)benzamide], the Ki stood at 1.7 nM and the “fold improvement in in vitro potency” value worked out at 5.7 fold. In the same order, the values of `CC(C)[C@H]1CN(C(=O)[C@@H](NC(=O)c2ccc(N3CCN(C)CC3)cc2)C2CCCC2)[C@@H]2C(=O)CO[C@H]12` [Example 30, N—((S)-1-cyclopentyl-2-((3aS,6S,6aR)-6-isopropyl-3-oxodihydro-2H-furo[3,2-b]pyrrol-4(5H,6H,6aH)-yl)-2-oxoethyl)-4-(4-methylpiperazin-1-yl)benzamide] are 0.45 nM and 18.9 fold. The matching figures for `CC(C)C[C@H](NC(=O)c1ccc(N2CCN(C)CC2)cc1)C(=O)N1C[C@@H](C)[C@H]2OCC(=O)[C@H]21` [Example 1, N—((S)-4-methyl-1-((3aS,6R,6aR)-6-methyl-3-oxodihydro-2H-furo[3,2-b]pyrrol-4(5H,6H,6aH)-yl)-1-oxopentan-2-yl)-4-(4-methylpiperazin-1-yl)benzamide]: 2.5 nM and 3.5 fold. The matching figures for `CC(C)C[C@H](NC(=O)c1ccc(N2CCN(C)CC2)cc1)C(=O)N1C[C@H](C)[C@H]2OCC(=O)[C@H]21` [Example 5, N—((S)-4-methyl-1-((3aS,6S,6aR)-6-methyl-3-oxodihydro-2H-furo[3,2-b]pyrrol-4(5H,6H,6aH)-yl)-1-oxopentan-2-yl)-4-(4-methylpiperazin-1-yl)benzamide]: 0.75 nM and 11.6 fold. `CC[C@@H]1CN(C(=O)[C@@H](NC(=O)c2ccc(N3CCN(C)CC3)cc2)C(C)(C)C)[C@@H]2C(=O)CO[C@H]12` [Example 23, N—((S)-1-((3aS,6R,6aR)-6-ethyl-3-oxodihydro-2H-furo[3,2-b]pyrrol-4(5H,6H,6aH)-yl)-3,3-dimethyl-1-oxobutan-2-yl)-4-(4-methylpiperazin-1-yl)benzamide]: the Ki was 4.4 nM. Turning to `CC(C)[C@@H]1CN(C(=O)[C@@H](NC(=O)c2ccc(N3CCN(C)CC3)cc2)C2CCCC2)[C@@H]2C(=O)CO[C@@H]21` [Example 28, N—((S)-1-cyclopentyl-2-((3aS,6R,6aR)-6-isopropyl-3-oxodihydro-2H-furo [3,2-b]pyrrol-4(5H,6H,6aH)-yl)-2-oxoethyl)-4-(4-methylpiperazin-1-yl)benzamide], the Ki is 1.5 nM and the “fold improvement in in vitro potency” value is given as 5.8 fold.
